Results published in ChEMBL document CHEMBL1201862, “PubChem BioAssay data set” (2004).
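Assay format: 96-well plates, 48-hour exposure. GI50 = concentration required for 50% inhibition of growth.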 Calls of active or inactive are those of the source. Rule as the data show it: active = GI50 up to about 1.1 µM and inactive = higher.

Legend:
Experiment in all cases: inhibition of tumour cell growth, NCI panel, 48 h
CAKI-1 = test system: CAKI-1
MDA-MB-231 = test system: MDA-MB-231
DU-145 = test system: DU-145
NCI-H460 = test system: NCI-H460
OVCAR-8 = test system: OVCAR-8
RPMI-8226 = test system: RPMI-8226
786-0 = test system: 786-0
K562 = test system: K562
HOP-62 = test system: HOP-62
A498 = test system: A498
SK-MEL-5 = test system: SK-MEL-5
SF-268 = test system: SF-268
RXF 393 = test system: RXF 393
NCI-H23 = test system: NCI-H23
Malme-3M = test system: Malme-3M
OVCAR-5 = test system: OVCAR-5
HL-60 = test system: HL-60
UO-31 = test system: UO-31
SF-539 = test system: SF-539

| SMILES | GI50 (CAKI-1) | GI50 (MDA-MB-231) | GI50 (DU-145) | GI50 (NCI-H460) | GI50 (OVCAR-8) | GI50 (RPMI-8226) | GI50 (786-0) | GI50 (K562) | GI50 (HOP-62) | GI50 (A498) | GI50 (SK-MEL-5) | GI50 (SF-268) | GI50 (RXF 393) | GI50 (NCI-H23) | GI50 (Malme-3M) | GI50 (OVCAR-5) | GI50 (HL-60) | GI50 (UO-31) | GI50 (SF-539) |
| --- | --- | --- | --- | --- | --- | --- | --- | --- | --- | --- | --- | --- | --- | --- | --- | --- | --- | --- | --- |
| Cc1nc2ccccc2nc1N1CCCC1 | > 100 µM (inactive) | > 100 µM (inactive) | > 100 µM (inactive) | > 100 µM (inactive) | > 100 µM (inactive) | > 100 µM (inactive) | > 100 µM (inactive) | > 100 µM (inactive) | > 100 µM (inactive) | > 100 µM (inactive) | > 100 µM (inactive) | > 100 µM (inactive) | > 100 µM (inactive) | > 100 µM (inactive) | > 100 µM (inactive) | > 100 µM (inactive) |  |  |  |
| CCn1c(O)c(C(=O)NC(C)c2ccc([N+](=O)[O-])cc2)c(=O)n(CC)c1=S (stereo not given) | 2.55 µM (inactive) | 2.91 µM (inactive) | 2.54 µM (inactive) | 2.41 µM (inactive) |  | 1.43 µM (inactive) | 3.27 µM (inactive) | 0.951 µM (active) | 2.31 µM (inactive) |  | 3.13 µM (inactive) | 3.92 µM (inactive) | 3.11 µM (inactive) | 1.77 µM (inactive) |  | 2.23 µM (inactive) | 2.28 µM (inactive) | 1.92 µM (inactive) | 3.93 µM (inactive) |
| COc1ccccc1N1CCN(S(=O)(=O)c2ccc(Cl)cc2)C1=N | > 100 µM (inactive) | 37.1 µM (inactive) | 47.5 µM (inactive) | 33.4 µM (inactive) | 63.2 µM (inactive) | 93.8 µM (inactive) | 99.5 µM (inactive) | 61.7 µM (inactive) | > 100 µM (inactive) | > 100 µM (inactive) | 56.2 µM (inactive) | > 100 µM (inactive) | > 100 µM (inactive) | 60 µM (inactive) |  | 22.4 µM (inactive) |  | 33.3 µM (inactive) | 81.3 µM (inactive) |
| CCOC(=O)C1=C(C)OC2(O)C=CC(O)=C3C(=O)N(c4ccccc4)C(=O)C312 (stereo not given) | 48.8 µM (inactive) | 37.8 µM (inactive) | 36.7 µM (inactive) | > 100 µM (inactive) | 52 µM (inactive) | 14.9 µM (inactive) | 40.5 µM (inactive) | 32.7 µM (inactive) | 53.5 µM (inactive) |  |  | 38.7 µM (inactive) | 26.4 µM (inactive) | 40.8 µM (inactive) | 20 µM (inactive) | 58.5 µM (inactive) | 29.4 µM (inactive) | 24.4 µM (inactive) | 29.1 µM (inactive) |
| CCCCNc1nc(N)nc(Nc2ccc(Br)cc2)c1N=O |  | 41.8 µM (inactive) | 96.8 µM (inactive) | 70 µM (inactive) | 70.5 µM (inactive) | 52 µM (inactive) | 17.5 µM (inactive) | 38.9 µM (inactive) | 37.2 µM (inactive) |  | > 100 µM (inactive) | > 100 µM (inactive) | 32.7 µM (inactive) | > 100 µM (inactive) | > 100 µM (inactive) | 77.4 µM (inactive) | 17.9 µM (inactive) | 28.1 µM (inactive) | 80.2 µM (inactive) |
| N=C(N)NC(=N)Nc1c(F)c(F)c(F)c(F)c1F | > 100 µM (inactive) | 62.2 µM (inactive) | > 100 µM (inactive) | 90.4 µM (inactive) | > 100 µM (inactive) | 52.7 µM (inactive) | > 100 µM (inactive) | 41.5 µM (inactive) | > 100 µM (inactive) | > 100 µM (inactive) | 44.8 µM (inactive) | > 100 µM (inactive) | > 100 µM (inactive) | 87.1 µM (inactive) | 69 µM (inactive) | > 100 µM (inactive) |  | > 100 µM (inactive) | > 100 µM (inactive) |
| O=C1C(=Cc2ccccc2[N+](=O)[O-])N=C(c2ccccc2)N1n1c(-c2ccccc2)nc2ccccc2c1=O | 39.1 µM (inactive) | 27.6 µM (inactive) | 33.5 µM (inactive) | 31.3 µM (inactive) | 24.7 µM (inactive) | 20.5 µM (inactive) | 38 µM (inactive) | 31.8 µM (inactive) | 28.6 µM (inactive) |  | 31.5 µM (inactive) | 30.3 µM (inactive) | 16.1 µM (inactive) | 20.2 µM (inactive) | 25.1 µM (inactive) | 71.3 µM (inactive) | > 10 µM (inactive) | 32.4 µM (inactive) | 25.8 µM (inactive) |
| CC1(C)CC[C@]2(C(=O)O)CC[C@]3(C)C(=CC[C@@H]4[C@@]5(C)CC[C@H](OC6OC(C(=O)O)C(O)C(O)C6O)C(C)(C)[C@@H]5CC[C@]43C)[C@@H]2C1 (stereo not given in full) | 18.7 µM (inactive) | 18.2 µM (inactive) | 16.8 µM (inactive) | 18.7 µM (inactive) | 20.8 µM (inactive) | 19.8 µM (inactive) | 17.5 µM (inactive) | 17 µM (inactive) | 18.8 µM (inactive) | 19.1 µM (inactive) | 19.1 µM (inactive) | 17.3 µM (inactive) | 16.7 µM (inactive) | 18.9 µM (inactive) | 18.1 µM (inactive) | 16.2 µM (inactive) | 18.2 µM (inactive) | 19.5 µM (inactive) |  |
| CC(NC(=O)C(N)CC(=O)O)NC(=O)N1CCCC1 (stereo not given) | > 100 µM (inactive) | > 100 µM (inactive) | > 100 µM (inactive) | > 100 µM (inactive) | > 100 µM (inactive) | > 100 µM (inactive) | > 100 µM (inactive) | > 100 µM (inactive) | > 100 µM (inactive) | > 100 µM (inactive) | > 100 µM (inactive) | > 100 µM (inactive) | > 100 µM (inactive) | > 100 µM (inactive) | > 100 µM (inactive) | > 100 µM (inactive) |  | > 100 µM (inactive) | > 100 µM (inactive) |
| CCCC[Si](CCCC)(CCCC)O[C@@H](/C=C/C(=O)OCC)[C@H](Cc1ccccc1)O[Si](CCCC)(CCCC)CCCC | > 100 µM (inactive) | > 100 µM (inactive) | > 100 µM (inactive) | > 100 µM (inactive) | > 100 µM (inactive) | > 100 µM (inactive) | > 100 µM (inactive) | > 100 µM (inactive) | > 100 µM (inactive) | > 100 µM (inactive) |  | > 100 µM (inactive) | > 100 µM (inactive) | > 100 µM (inactive) | > 100 µM (inactive) | > 100 µM (inactive) |  | > 100 µM (inactive) | > 100 µM (inactive) |
| CC1(C)C2CCC1C(=O)[C@@]1(C=CC(=O)CC1)C2 (stereo not given in full) |  | > 100 µM (inactive) | > 100 µM (inactive) | > 100 µM (inactive) | > 100 µM (inactive) | > 100 µM (inactive) | > 100 µM (inactive) | > 100 µM (inactive) | > 100 µM (inactive) |  | > 100 µM (inactive) | > 100 µM (inactive) | > 100 µM (inactive) | > 100 µM (inactive) | > 100 µM (inactive) | > 100 µM (inactive) | > 100 µM (inactive) | > 100 µM (inactive) | > 100 µM (inactive) |
| Cc1nn(C(=O)c2ccc(Cl)cc2)c2c1C(c1ccccc1O)SC(=N)N2 (stereo not given) | > 10 µM (inactive) | > 10 µM (inactive) | > 10 µM (inactive) | > 10 µM (inactive) | > 10 µM (inactive) | > 10 µM (inactive) | > 10 µM (inactive) | > 10 µM (inactive) | > 10 µM (inactive) |  | > 10 µM (inactive) | > 10 µM (inactive) | > 10 µM (inactive) | > 10 µM (inactive) | > 10 µM (inactive) | > 10 µM (inactive) | > 10 µM (inactive) |  | > 10 µM (inactive) |
| Cc1nn(C(=O)c2ccncc2)c2c1C(c1cccc([N+](=O)[O-])c1)SC(=N)N2 (stereo not given) | > 10 µM (inactive) | > 10 µM (inactive) | > 10 µM (inactive) | > 10 µM (inactive) | > 10 µM (inactive) | > 10 µM (inactive) | > 10 µM (inactive) | > 10 µM (inactive) | > 10 µM (inactive) |  | > 10 µM (inactive) | > 10 µM (inactive) | > 10 µM (inactive) | > 10 µM (inactive) | > 10 µM (inactive) | > 10 µM (inactive) | > 10 µM (inactive) |  | > 10 µM (inactive) |
| COc1ccc2[nH]c3c(c2c1)CC(=O)N1CCC[C@H](C1)CC31OCCCO1 | > 100 µM (inactive) | > 100 µM (inactive) | > 100 µM (inactive) | > 100 µM (inactive) | > 100 µM (inactive) | > 100 µM (inactive) | > 100 µM (inactive) |  | > 100 µM (inactive) | > 100 µM (inactive) | > 100 µM (inactive) | > 100 µM (inactive) | 44.5 µM (inactive) | > 100 µM (inactive) | > 100 µM (inactive) | > 100 µM (inactive) |  | > 100 µM (inactive) |  |
| NCC1Nc2ccccc2[C@@H](O)C1O (stereo not given in full) | > 100 µM (inactive) | > 100 µM (inactive) | > 100 µM (inactive) | > 100 µM (inactive) | > 100 µM (inactive) | > 100 µM (inactive) | > 100 µM (inactive) | > 100 µM (inactive) | > 100 µM (inactive) |  | > 100 µM (inactive) | > 100 µM (inactive) | > 100 µM (inactive) | > 100 µM (inactive) | > 100 µM (inactive) | > 100 µM (inactive) | > 100 µM (inactive) | > 100 µM (inactive) | > 100 µM (inactive) |
| C[C@H](OC(=O)/C=C/c1ccc(O)c(O)c1)[C@H](C)OC(=O)/C=C/c1ccc(O)c(O)c1 | 7.89 µM (inactive) | 10.9 µM (inactive) | 11.6 µM (inactive) | 4.11 µM (inactive) | 6.15 µM (inactive) | 9.59 µM (inactive) | 4.73 µM (inactive) | 4.61 µM (inactive) | 11.1 µM (inactive) | 17.1 µM (inactive) | 6.12 µM (inactive) | 7.43 µM (inactive) | 6.87 µM (inactive) | 4.29 µM (inactive) | 14.7 µM (inactive) | 14 µM (inactive) |  | 4.8 µM (inactive) | 9.48 µM (inactive) |
